# Test results as given in PMC5752149 (European journal of medicinal chemistry, 2017).
# What was measured:
# EphA2 receptor [1] = target: T1, EphA2 receptor (Homo sapiens, UniProt P29317); test: EphA2 phosphorylation and internalization in MDA-MB-231 cells; assay type: cell-based
# EphA2 receptor [2] = target: T1, EphA2 receptor; test: EphA2 phosphorylation in EphA2-overexpressing MDA-MB-231 cells; assay type: cell-based
# T1 sequence (P29317 24-976): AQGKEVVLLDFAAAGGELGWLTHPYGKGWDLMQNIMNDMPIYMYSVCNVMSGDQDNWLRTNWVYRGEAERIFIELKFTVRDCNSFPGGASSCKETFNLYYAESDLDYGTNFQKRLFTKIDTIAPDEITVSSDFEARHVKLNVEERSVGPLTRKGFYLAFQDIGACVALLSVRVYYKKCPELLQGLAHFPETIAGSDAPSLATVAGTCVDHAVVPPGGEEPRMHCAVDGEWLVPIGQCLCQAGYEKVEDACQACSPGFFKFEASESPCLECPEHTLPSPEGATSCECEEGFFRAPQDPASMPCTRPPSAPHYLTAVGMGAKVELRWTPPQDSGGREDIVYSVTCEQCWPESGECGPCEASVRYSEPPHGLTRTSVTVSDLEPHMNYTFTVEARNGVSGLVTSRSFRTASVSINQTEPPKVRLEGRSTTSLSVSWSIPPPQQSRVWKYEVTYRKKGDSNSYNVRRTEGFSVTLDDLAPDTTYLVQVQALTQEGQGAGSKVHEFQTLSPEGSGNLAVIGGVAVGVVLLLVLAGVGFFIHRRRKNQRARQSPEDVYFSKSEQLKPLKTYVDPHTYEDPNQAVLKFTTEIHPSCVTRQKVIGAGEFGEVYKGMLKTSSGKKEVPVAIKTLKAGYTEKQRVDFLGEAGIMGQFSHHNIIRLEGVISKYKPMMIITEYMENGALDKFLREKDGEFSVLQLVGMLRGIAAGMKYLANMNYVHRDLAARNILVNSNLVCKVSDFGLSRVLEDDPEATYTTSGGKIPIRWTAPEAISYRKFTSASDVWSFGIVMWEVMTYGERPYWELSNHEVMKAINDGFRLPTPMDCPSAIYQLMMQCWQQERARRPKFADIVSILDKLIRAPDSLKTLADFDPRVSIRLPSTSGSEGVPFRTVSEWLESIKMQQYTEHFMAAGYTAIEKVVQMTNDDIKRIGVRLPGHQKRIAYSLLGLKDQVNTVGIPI
SMILES,"EphA2 phosphorylation and internalization in MDA-MB-231 cells (positive control, (EphA2 receptor [1])",EphA2 phosphorylation in EphA2-overexpressing MDA-MB-231 cells; receptor interna (EphA2 receptor [2])
"COc1cc2nc(N3CCN(C(=O)C4COc5ccccc5O4)CC3)nc(N)c2cc1OC (centres unmarked) [Doxazosin, 2-[4-(2,3-Dihydro-1,4-benzodioxine-2-carbonyl)piperazin-1-yl]-6,7-dimethoxyquinazolin-4-amine]",~ 50 μM,
"COc1cc2nc(N3CCN(C(=O)CCCCCCCCCCC(=O)N4CCN(c5nc(N)c6cc(OC)c(OC)cc6n5)CC4)CC3)nc(N)c2cc1OC [compound 27, 1,12-bis(4-(4-amino-6,7-dimethoxyquinazolin-2-yl)piperazin-1-yl)dodecane-1,12-dione]",,~ 0.4 μM
